In patent US20240182445A1 (ONO PHARMACEUTICAL CO., LTD., priority 2019, published 2024) one finds IC50 data, which are given here for 28 compounds.

Molecules are shown by their SMILES.

The first experiment concerns the target T1, human TREK-1 (Homo sapiens, UniProt O95069).
T1 construct: expressed in transfected cells
T1 sequence (O95069 1-426): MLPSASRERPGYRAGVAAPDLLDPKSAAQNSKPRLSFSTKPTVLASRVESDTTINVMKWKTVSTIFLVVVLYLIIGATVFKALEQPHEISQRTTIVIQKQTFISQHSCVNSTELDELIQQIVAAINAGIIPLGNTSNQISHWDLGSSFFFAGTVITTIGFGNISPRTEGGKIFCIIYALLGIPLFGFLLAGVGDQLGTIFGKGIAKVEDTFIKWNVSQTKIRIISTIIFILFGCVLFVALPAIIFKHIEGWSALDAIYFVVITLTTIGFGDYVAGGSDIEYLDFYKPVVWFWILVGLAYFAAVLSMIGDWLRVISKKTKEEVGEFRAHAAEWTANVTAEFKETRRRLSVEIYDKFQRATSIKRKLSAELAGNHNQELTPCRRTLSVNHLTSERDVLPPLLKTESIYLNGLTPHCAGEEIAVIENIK
As to the kind of experiment: TREK-1 Thallium (Tl+) flux assay, Method 1. The class given is cell-based. The settings on record: TREK-1 Thallium (Tl+) flux assay, Method 1. In short, it runs like this:
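CHO-K1 cells stably expressing human TREK-1, loaded with Thallos dye, received compound or 0.3% DMSO vehicle for 10 min before thallium stimulus buffer. ΔRatio is fluorescence at 25 s after thallium addition over mean pre-addition fluorescence; % inhibition calculated from it.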
As a reminder, the IC50 is the midpoint of a concentration-inhibition curve. Read a low IC50 as greater potency. For the compound `Cc1cc(OCc2ccccc2)ccc1NC(=O)c1c(Cl)cnn1C1CCN(C(=O)C2CC2)CC1` [Compound 400, N-(4-(benzyloxy)-2-methylphenyl)-4-chloro-1-(1-(cyclopropanecarbonyl)piperidin-4-yl)-1H-pyrazole-5-carboxamide], the IC50 amounted to 1780 nM. `Cc1cc(OCc2ccccc2)ccc1NC(=O)c1c(Cl)cnn1CC1CN(C(=O)C(C)C)CCO1` (stereo not shown) [Compound 420, N-(4-(benzyloxy)-2-methylphenyl)-4-chloro-1-((4-isobutyrylmorpholin-2-yl)methyl)-1H-pyrazole-5-carboxamide] gave an IC50 of 4380 nM.

`CC(=O)N1CCC(n2ncc(Cl)c2C(=O)Nc2ncc(-c3cnc4ccccc4c3)cc2C)CC1` [Compound 422, 1-(1-acetylpiperidin-4-yl)-4-chloro-N-(3-methyl-5-(quinolin-3-yl)pyridin-2-yl)-1H-pyrazole-5-carboxamide] registered an IC50 of 4460 nM. The IC50 values of the last two compounds are within 1.5-fold of each other.

The same experiment, now with this note: TREK-1 Thallium (Tl+) flux assay; no *^12 (Method 2) mark on these rows.
Regarding `CCC(=O)N1CCCC(Cn2ncc(Cl)c2C(=O)Nc2ncc(C#Cc3ccc(F)cc3)cc2C)C1` (stereo not shown) [Compound 355, 4-chloro-N-(5-((4-fluorophenyl)ethynyl)-3-methylpyridin-2-yl)-1-((1-propionylpiperidin-3-yl)methyl)-1H-pyrazole-5-carboxamide], half-maximal inhibition (IC50) required 850 nM.

The compound `Cc1cc(C#Cc2ccccc2)cnc1NC(=O)c1c(Cl)cnn1CC(C)(C)C#N` [Compound 276, 4-chloro-1-(2-cyano-2-methylpropyl)-N-(3-methyl-5-(phenylethynyl)pyridin-2-yl)-1H-pyrazole-5-carboxamide] returned an IC50 of 480 nM. Consider `Cc1cc(C#Cc2ccccc2)cnc1NC(=O)c1c(Cl)cnn1C1CCN(C(=O)OC(C)(C)C)C1` (stereo not shown) [Compound 307, tert-butyl 3-(4-chloro-5-((3-methyl-5-(phenylethynyl)pyridin-2-yl)carbamoyl)-1H-pyrazol-1-yl)pyrrolidine-1-carboxylate], for which the IC50 worked out at 580 nM.

Regarding `Cc1cc(C#Cc2ccccc2)cnc1NC(=O)c1c(Cl)cnn1C1CCN(C(=O)OC(C)(C)C)C[C@H]1F` (stereo in doubt) [Compound 336, tert-butyl (3R,4R)-4-(4-chloro-5-((3-methyl-5-(phenylethynyl)pyridin-2-yl)carbamoyl)-1H-pyrazol-1-yl)-3-fluoropiperidine-1-carboxylate], the IC50 was determined as 710 nM. Same read-out and setting: for `Cc1cc(C#Cc2ccc(F)cc2)cnc1NC(=O)c1c(Cl)cnn1CCN1CCN(C(=O)C2COCCO2)CC1` (stereo not shown) [Compound 246, 1-(2-(4-(1,4-dioxane-2-carbonyl)piperazin-1-yl)ethyl)-4-chloro-N-(5-((4-fluorophenyl)ethynyl)-3-methylpyridin-2-yl)-1H-pyrazole-5-carboxamide] the value was 390 nM.

Compound `Cc1cc(-c2cnn(-c3ccc(F)cc3)c2)cnc1NC(=O)c1c(Cl)cnn1CC1(C#N)CC1` [Compound 389, 4-chloro-1-((1-cyanocyclopropyl)methyl)-N-(5-(1-(4-fluorophenyl)-1H-pyrazol-4-yl)-3-methylpyridin-2-yl)-1H-pyrazole-5-carboxamide] had an IC50 of 1210 nM. This IC50 lies about 3.1-fold higher than the previous one.

In the case of `Cc1cc(C#Cc2ccc(F)cc2)cnc1NC(=O)c1c(Cl)cnn1[C@H]1CCOC1` [Compound 322, (S)-4-chloro-N-(5-((4-fluorophenyl)ethynyl)-3-methylpyridin-2-yl)-1-(tetrahydrofuran-3-yl)-1H-pyrazole-5-carboxamide], the IC50 was 630 nM.

In turn, `O=C(Nc1ncc(C#Cc2ccccc2)cc1F)c1c(Cl)cnn1CC1CCOC1` (stereo not shown) [Compound 217, 4-chloro-N-(3-fluoro-5-(phenylethynyl)pyridin-2-yl)-1-((tetrahydrofuran-3-yl)methyl)-1H-pyrazole-5-carboxamide] showed an IC50 of 340 nM.

Regarding `COc1ccc(-c2cnc(NC(=O)c3c(Cl)cnn3C3CCN(C(=O)OC(C)(C)C)CC3)c(C)c2)cc1C(C)C` [Compound 390, tert-butyl 4-(4-chloro-5-((5-(3-isopropyl-4-methoxyphenyl)-3-methylpyridin-2-yl)carbamoyl)-1H-pyrazol-1-yl)piperidine-1-carboxylate], the IC50 came to 1210 nM. On the same count and under the same terms, for `Cc1cc(C#Cc2ccccc2)cnc1NC(=O)c1c(Cl)cnn1C1CC(C#N)C1` (stereo not shown) [Compound 254, 4-chloro-1-(3-cyanocyclobutyl)-N-(3-methyl-5-(phenylethynyl)pyridin-2-yl)-1H-pyrazole-5-carboxamide] the value was 420 nM. Still for that read-out and setting: next, `Cc1cc(C#Cc2cccc(F)c2)cnc1NC(=O)c1c(Cl)cnn1C1CCN(C(=O)C(C)(C)C)CC1` [Compound 205, 4-chloro-N-(5-((3-fluorophenyl)ethynyl)-3-methylpyridin-2-yl)-1-(1-pivaloylpiperidin-4-yl)-1H-pyrazole-5-carboxamide]: 310 nM.

The experiment is the same for the next values; noted with them: TREK-1 Thallium (Tl+) flux assay; values without footnote *12 are Method 1.
`CC(=O)N1CCC(n2ncc(Cl)c2C(=O)Nc2ncc(C#Cc3cccc(F)c3)cc2C)CC1C` (stereo not shown) [Compound 72, 1-(1-acetyl-2-methylpiperidin-4-yl)-4-chloro-N-(5-((3-fluorophenyl)ethynyl)-3-methylpyridin-2-yl)-1H-pyrazole-5-carboxamide] registered an IC50 of 160 nM. The compound `Cc1cc(C#Cc2ccc(F)cc2)cnc1NC(=O)c1c(Cl)cnn1C1CCN(C(=O)C(C)C)CC1` [Compound 151, 4-chloro-N-(5-((4-fluorophenyl)ethynyl)-3-methylpyridin-2-yl)-1-(1-isobutyrylpiperidin-4-yl)-1H-pyrazole-5-carboxamide] returned an IC50 of 240 nM. On the same count and under the same terms, for `CCNC(=O)N1CCC(n2ncc(Cl)c2C(=O)Nc2ncc(C#Cc3ccccc3)cc2F)CC1` [Compound 158, 4-(4-chloro-5-((3-fluoro-5-(phenylethynyl)pyridin-2-yl)carbamoyl)-1H-pyrazol-1-yl)-N-ethylpiperidine-1-carboxamide] the value was 250 nM. As to `CC(=O)N1CCC(Cn2ncc(Cl)c2C(=O)Nc2ncc(C#Cc3ccccc3)cc2F)C1` (stereo not shown) [Compound 44, 1-((1-acetylpyrrolidin-3-yl)methyl)-4-chloro-N-(3-fluoro-5-(phenylethynyl)pyridin-2-yl)-1H-pyrazole-5-carboxamide], inhibition was half-maximal at 130 nM (IC50). On the same count and under the same terms, next, `CC(=O)N1CC[C@@H](n2ncc(Cl)c2C(=O)Nc2ncc(C#Cc3ccccc3)cc2F)[C@H](F)C1` [Compound 20, 1-((3R,4R)-1-acetyl-3-fluoropiperidin-4-yl)-4-chloro-N-(3-fluoro-5-(phenylethynyl)pyridin-2-yl)-1H-pyrazole-5-carboxamide]: 70 nM. On the same count and under the same terms, next, `CC(=O)N1CCCC(Cn2ncc(Cl)c2C(=O)Nc2ncc(C#Cc3ccccc3)cc2C)C1` (stereo not shown) [Compound 176, 1-((1-acetylpiperdin-3-yl)methyl)-4-chloro-N-(3-methyl-5-(phenylethynyl)pyridin-2-yl)-1H-pyrazole-5-carboxamide]: 270 nM; `CC(=O)N1CCC(n2ncc(Cl)c2C(=O)Nc2c(C)cc(C#Cc3ccccc3)cc2F)CC1` [Compound 37, 1-(1-acetylpiperidin-4-yl)-4-chloro-N-(2-fluoro-6-methyl-4-(phenylethynyl)phenyl)-1H-pyrazole-5-carboxamide]: 120 nM; `CC(C)C(=O)N1CC[C@H](Cn2ncc(Cl)c2C(=O)Nc2ncc(C#Cc3ccccc3)cc2F)[C@H](F)C1` [Compound 58, 4-chloro-1-(((3S,4R)-3-fluoro-1-isobutyrylpiperidin-4-yl)methyl)-N-(3-fluoro-5-(phenylethynyl)pyridin-2-yl)-1H-pyrazole-5-carboxamide]: 140 nM.

As to `O=C(Nc1ncc(C#Cc2ccc(F)cc2)cc1F)c1c(Cl)cnn1[C@H]1CC[C@@H](NC(=O)C2COCCO2)CC1` (stereo partly drawn) [Compound 23, 1-(cis-4-(1,4-dioxane-2-carboxamido)cyclohexyl)-4-chloro-N-(3-fluoro-5-((4-fluorophenyl)ethynyl)pyridin-2-yl)-1H-pyrazole-5-carboxamide], the IC50 was determined as 80 nM. Take `CC(=O)N1CC(Cn2ncc(Cl)c2C(=O)Nc2ncc(C#Cc3ccccc3)cc2C)C1` [Compound 135, 1-((1-acetylazetidin-3-yl)methyl)-4-chloro-N-(3-methyl-5-(phenylethynyl)pyridin-2-yl)-1H-pyrazole-5-carboxamide]: the IC50 turned out to be 220 nM. On the same count and under the same terms, for `CCNC(=O)N1CCC(n2ncc(Cl)c2C(=O)Nc2ncc(C#Cc3cccc(F)c3)cc2C)CC1` [Compound 75, 4-(4-chloro-5-((5-((3-fluorophenyl)ethynyl)-3-methylpyridin-2-yl)carbamoyl)-1H-pyrazol-1-yl)-N-ethylpiperidine-1-carboxamide] the value was 160 nM; for `CS(=O)(=O)N1CCC(n2ncc(Cl)c2C(=O)Nc2ncc(C#Cc3ccccc3)cc2F)CC1` [Compound 70, 4-chloro-N-(3-fluoro-5-(phenylethynyl)pyridin-2-yl)-1-(1-(methylsulfonyl)piperidin-4-yl)-1H-pyrazole-5-carboxamide], 160 nM.

`Cc1cc(C#Cc2ccccc2)cnc1NC(=O)c1c(Cl)cnn1C1CN(C(=O)C2CC2)C1` [Compound 87, 4-chloro-1-(1-(cyclopropanecarbonyl)azetidin-3-yl)-N-(3-methyl-5-(phenylethynyl)pyridin-2-yl)-1H-pyrazole-5-carboxamide]: the IC50 was found to be 170 nM. The compound `CC(C)(C)C(=O)N1CCC(n2ncc(Cl)c2C(=O)Nc2ncc(C#Cc3ccccc3)cc2F)CC1` [Compound 100, 4-chloro-N-(3-fluoro-5-(phenylethynyl)pyridin-2-yl)-1-(1-pivaloylpiperidin-4-yl)-1H-pyrazole-5-carboxamide] had an IC50 of 190 nM.
